Format in all cases: functional, cell-based
In one assay the test system is L1210. The experiment in a line: Antiproliferative activity against mouse L1210 leukemia cell line.
Another assay relates to NALM-6. The experiment in a line: Antiproliferative activity against human NALM6 leukemia cell line.
The subject of another assay is HL-60. The experiment in a line: Antiproliferative activity against human HL60 leukemia cell line.

Each structure is given as a SMILES string.

As a reminder, the IC50 is the concentration that inhibits the measured activity by half. A lower IC50 goes with inhibition by little substance. As for `C=C1C(=O)ON(C)C1c1cccc2ccccc12` (configuration not stated), the IC50 was 3.2 µM in the assay with L1210, 4.2 µM with NALM-6 and 5.6 µM with HL-60.
`C=C1C(=O)ON(C)C1c1ccc(C)cc1` (configuration not stated): the IC50 worked out at 0.8 µM with L1210, 5.8 µM in the assay on NALM-6 and 5.4 µM in the assay with HL-60.
For `C=C1C(=O)ON(C)C1c1ccc(OC)cc1` (configuration not stated) the same measures were 3.5 µM, 5.5 µM and 5.4 µM.
For `C=C1C(=O)ON(C)C1c1ccc([N+](=O)[O-])cc1` (configuration not stated), the IC50 was determined as 0.8 µM with L1210, 5.2 µM with NALM-6 and 7.4 µM in the assay on HL-60.
Take `C=C1C(=O)ON(C)C1c1ccccc1` (configuration not stated): the 50% inhibitory concentration (IC50) in the assay with L1210 was found to be 5.5 µM; in the assay with NALM-6, 4.96 µM; in the assay on HL-60, 34.8 µM.
With `C=C1C(=O)ON(C)C1C(C)CCC` (configuration not stated), the figures for the IC50 in the assay on L1210, with NALM-6 and in the assay with HL-60 were 1.9 µM, 0.34 µM and 4.7 µM, respectively.
For `C=C1C(=O)ON(C)C1c1ccc2c(c1)OCO2` (configuration not stated) the same measures were 7 µM, 4.2 µM and 6.6 µM.
Take `C=C1C(=O)ON(C)C1C(C)C` (configuration not stated): the figures for the IC50 with L1210, in the assay with NALM-6 and with HL-60 were 2.63 µM, 4.16 µM and 0.74 µM, respectively.
Regarding `C=C1C(=O)ON(C)C1c1ccc(Br)cc1` (configuration not stated), the IC50 in the assay on L1210 is 0.7 µM; with NALM-6, 4.6 µM; in the assay with HL-60, 5.1 µM.
